From ChEMBL document CHEMBL4619743, “Synthetic approaches towards bedaquiline and its derivatives” (2020)
Converted amounts (≈) assume the structure as drawn.

Legend:
[1] = system: Mycobacterium tuberculosis; test: Antimycobacterial activity against Mycobacterium tuberculosis H37Rv; type: functional
[2] = system: Mycobacterium tuberculosis; test: Antimycobacterial activity against Mycobacterium tuberculosis; type: functional

| SMILES | MIC90 [1] [µg/mL] | MIC90 [2] [µg/mL] |
| --- | --- | --- |
| COc1cc2ccc(Br)cc2cc1[C@@H](c1ccccc1)[C@@](O)(CCN(C)C)c1cccc(Br)c1 | 0.01 (≈ 0.0171 µM) | – |
| COc1cc2ccc(Br)cc2cc1[C@@H](c1ccccc1)[C@@](O)(CCN(C)C)c1cccc2ccccc12 | 0.59 (≈ 1.06 µM) | – |
| COc1cc2ccc(Br)cc2cc1[C@@H]1O[C@H]1CO | 0.11 (≈ 0.356 µM) | 0.13 to 0.5 (≈ 0.42 to 1.62 µM) |
